# Reference: patent US20220257514A1, “MONOSACCHARIDE-TAGGED NANO-LIPOSOME DRUG DELIVERY SYSTEM, THE MANUFACTURE AND USE FOR DRUG TARGETING DELIVERY THEREOF” (National Yang Ming Chiao Tung University, priority 2019, published 2022)
# Key:
# L929 fibroblasts = assay: Annexin V/PI apoptosis, normal cell line; assay type: cell-based; conditions: L929 fibroblasts cultured under attached conditions
# A549 CSC = conditions: stated as known; cited from earlier work
substance,measurement,setting,value
ceramide [free ceramide],apoptosis in normal cells,L929 fibroblasts,neither free ceramide nor G5C3 cause significant apoptosis
same,resistance of A549 CSC,A549 CSC,resistant to free ceramide
